Results from ChEMBL document CHEMBL1201862, “PubChem BioAssay data set” (2004).
Activity calls are given as the source filed them.

Key:
[1] = test system: CHO-K1; assay: (§1) Counterscreen for antagonists of the orexin 1 receptor (OX1R; HCRTR1): Homogeneous time resolved fluorescence (HTRF)-based cell-based dose response assay to identify antagonists of the parental CHO-K1 cell line. [Related pubchem assays (depositor defined):AID434989, AID435008, AID463079, AID485270, AID492963, AID492964, AID492965, AID493232, AID504699, AID504701]; assay type: functional; conditions: Cricetulus griseus
[2] = as §1, with “Fluorescence-based” for “Homogeneous time resolved fluorescence (HTRF)-based”, “cell-based high throughput” for “cell-based”, “CHO” for “CHO-K1”; assay type: functional
[3] = target: T1, Orexin/Hypocretin receptor type 1 (Homo sapiens, UniProt O43613); assay: Homogeneous Time Resolved Fluorescence (HTRF)-based cell-based high throughput dose response assay for antagonists of the orexin 1 receptor (OX1R; HCRTR1). [Related pubchem assays (depositor defined):AID434989, AID435008, AID463079, AID485270, AID492963, AID492964, AID492965, AID493232, AID504717, AID504718]; assay type: functional
T1 sequence (O43613 whole entry): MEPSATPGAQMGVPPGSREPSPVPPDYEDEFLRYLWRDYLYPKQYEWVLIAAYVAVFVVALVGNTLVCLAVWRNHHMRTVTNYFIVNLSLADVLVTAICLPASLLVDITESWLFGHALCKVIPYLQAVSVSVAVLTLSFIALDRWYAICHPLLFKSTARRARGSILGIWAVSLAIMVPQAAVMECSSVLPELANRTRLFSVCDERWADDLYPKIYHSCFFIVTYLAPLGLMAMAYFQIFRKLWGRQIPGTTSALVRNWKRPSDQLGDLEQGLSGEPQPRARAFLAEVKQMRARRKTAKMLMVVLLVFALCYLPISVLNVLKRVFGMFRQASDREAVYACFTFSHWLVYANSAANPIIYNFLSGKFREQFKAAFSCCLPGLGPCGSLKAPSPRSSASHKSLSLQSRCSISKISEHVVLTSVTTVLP

[4] = target: T1, Orexin/Hypocretin receptor type 1; assay: Fluorescence-based cell-based high throughput dose response assay for antagonists of the orexin 1 receptor (OX1R; HCRTR1). [Related pubchem assays (depositor defined):AID434989, AID435008, AID463079, AID485270, AID492963, AID492964, AID492965, AID493232, AID504717, AID504718]; assay type: functional
[5] = target: T2, Orexin receptor type 2 (Homo sapiens, UniProt O43614); assay: Counterscreen assay for antagonists of the orexin 1 receptor (OX1R; HCRTR1): Fluorescence-based cell-based dose response assay for antagonists of the orexin 2 receptor (OX2R; HCRTR2), run by assay provider.; assay type: functional
T2 sequence (O43614 whole entry): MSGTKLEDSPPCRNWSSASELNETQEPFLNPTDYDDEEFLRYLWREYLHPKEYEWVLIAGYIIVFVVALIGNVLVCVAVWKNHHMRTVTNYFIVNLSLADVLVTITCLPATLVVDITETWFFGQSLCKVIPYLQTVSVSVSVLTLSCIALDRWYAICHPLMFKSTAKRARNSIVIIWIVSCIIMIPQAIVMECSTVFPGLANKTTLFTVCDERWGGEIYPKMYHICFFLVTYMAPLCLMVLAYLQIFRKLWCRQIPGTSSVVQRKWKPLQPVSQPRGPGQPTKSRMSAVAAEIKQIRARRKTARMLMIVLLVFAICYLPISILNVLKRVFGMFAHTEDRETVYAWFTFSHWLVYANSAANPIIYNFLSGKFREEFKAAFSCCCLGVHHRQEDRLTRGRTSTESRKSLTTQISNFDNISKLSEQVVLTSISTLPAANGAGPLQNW

[6] = target: T2, Orexin receptor type 2; assay: Counterscreen assay for antagonists of the orexin 1 receptor (OX1R; HCRTR1): Homogeneous Time Resolved Fluorescence (HTRF)-based cell-based dose response assay for antagonists of the orexin 2 receptor (OX2R; HCRTR2), run by assay provider.; assay type: functional
[7] = NIH-3T3 fibroblast cytotoxicity, dose response, cytotoxicity control, cell-based, fluorescence, Alamar Blue, secondary assay (AID 2327); assay type: functional;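 note: NIH-3T3 mouse fibroblasts cultured with fluconazole at 8 µg/mL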
[8] = luciferase reporter signal suppression in cells – H4 neuroglioma cells, luminescence, dose response (AID 1990); assay type: functional, cell-based
[9] = test system: Streptococcus sp. 'group A'; assay: Streptococcus pyogenes SK(-)GAS viability under kanamycin – luminescence, BacTiterGlo, confirmation, counter-screen for streptokinase expression inhibitor project, dose response (AID 1900); assay type: functional, organism-based
[10] = test system: BJ; assay: BJ-TERT fibroblast viability loss – cell-based, RAS-independent, luminescence, dose response (AID 1933); assay type: functional; conditions: Homo sapiens
[11] = Luminescence Cell-Based Dose Response HTS to Identify Inhibitors of 5'UTR Stem-Loop Driven Prion Protein mRNA Translation in H4 Neuroglioblastoma Cells. [Related pubchem assays: 1827 (Project Summary), 1813 (Primary HTS)]; assay type: functional
[12] = alpha-synuclein stem-loop luciferase translation blockers – H4 neuroglioma cells, luminescence, confirmation (AID 1988); assay type: functional, cell-based
[13] = test system: BJ; assay: cells; assay type: functional, cell-based; conditions: Homo sapiens
[14] = fluconazole-exposed Candida albicans growth modulators – fluorescence, retest, confirmation (AID 2467); assay type: functional, cell-based
[15] = test system: BJ; assay: BJ-TERT-LT-ST fibroblast viability loss – cell-based, RAS-independent, luminescence, dose response (AID 1935); assay type: functional; conditions: Homo sapiens;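 note: BJ fibroblasts immortalized with TERT plus LT and ST oncogenes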
[16] = DRD fibroblast viability loss – cell-based, non-viral oncogenic, luminescence, dose response (AID 1934); assay type: functional; conditions: Homo sapiens
[17] = test system: Streptococcus; assay: GAS UMAA2166 growth inhibition – luminescence, BacTiterGlo, counter-screen for streptokinase expression inhibitor project, dose response (AID 1915); assay type: functional, organism-based;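 note: potency for reduction of bacterial viability or growth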
[18] = target: T3, Ubiquitin-conjugating enzyme E2 N (Homo sapiens, UniProt P61088); assay type: functional;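 note: Dose-response confirmation in a TR-FRET assay detecting UBC13-driven polyubiquitin chain formation, inhibition measured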
T3 sequence (P61088 whole entry): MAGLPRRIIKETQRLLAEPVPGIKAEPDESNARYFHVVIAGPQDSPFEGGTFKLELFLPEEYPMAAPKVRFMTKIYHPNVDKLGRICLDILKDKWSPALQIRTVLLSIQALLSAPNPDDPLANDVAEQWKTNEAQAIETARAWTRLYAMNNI

[19] = HEK-293T viability loss after treatment – luminescence, T-cell screen hits, cytotoxicity control for TCR NF-kB inhibitor project, dose response (AID 489026); assay type: functional, cell-based;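 note: cells exposed to compound about 14 hours before the viability readout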
[20] = target: T4, Insulin-degrading enzyme (Homo sapiens, UniProt P14735); assay: recombinant IDE activation, cell-free – biochemical, fluorescence polarization, counter-screen for IDE activator project, dose response (AID 588681)
T4 sequence (P14735 whole entry): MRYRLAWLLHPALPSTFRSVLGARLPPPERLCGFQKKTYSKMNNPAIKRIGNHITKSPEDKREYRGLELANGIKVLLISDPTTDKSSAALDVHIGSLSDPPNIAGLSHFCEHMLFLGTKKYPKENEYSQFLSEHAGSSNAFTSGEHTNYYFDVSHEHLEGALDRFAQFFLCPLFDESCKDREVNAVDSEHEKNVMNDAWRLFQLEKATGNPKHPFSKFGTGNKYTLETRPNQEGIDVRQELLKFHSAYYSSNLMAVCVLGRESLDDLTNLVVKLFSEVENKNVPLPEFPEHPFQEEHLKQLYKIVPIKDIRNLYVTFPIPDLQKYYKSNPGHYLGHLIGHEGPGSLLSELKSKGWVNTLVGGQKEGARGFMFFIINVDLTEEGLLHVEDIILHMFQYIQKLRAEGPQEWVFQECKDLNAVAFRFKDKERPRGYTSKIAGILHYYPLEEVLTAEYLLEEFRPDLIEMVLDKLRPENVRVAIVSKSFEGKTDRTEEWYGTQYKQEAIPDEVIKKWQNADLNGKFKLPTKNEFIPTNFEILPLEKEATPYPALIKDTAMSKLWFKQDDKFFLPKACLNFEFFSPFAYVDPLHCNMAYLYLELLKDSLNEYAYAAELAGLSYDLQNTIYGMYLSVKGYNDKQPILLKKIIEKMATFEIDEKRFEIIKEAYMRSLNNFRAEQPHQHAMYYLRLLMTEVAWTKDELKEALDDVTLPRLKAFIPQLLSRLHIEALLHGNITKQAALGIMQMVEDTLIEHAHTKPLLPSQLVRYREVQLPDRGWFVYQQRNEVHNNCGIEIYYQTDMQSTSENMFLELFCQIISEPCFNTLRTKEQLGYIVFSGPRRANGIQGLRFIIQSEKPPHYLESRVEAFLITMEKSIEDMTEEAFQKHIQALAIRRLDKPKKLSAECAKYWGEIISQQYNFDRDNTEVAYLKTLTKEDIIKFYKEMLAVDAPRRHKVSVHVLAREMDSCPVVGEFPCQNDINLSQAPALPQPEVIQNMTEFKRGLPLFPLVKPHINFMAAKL

[21] = test system: BJ; assay: growth inhibition of engineered Ras-driven BJ cells – cell-based, alamar blue fluorescence, cherrypicked samples, dose response (AID 2631); assay type: functional; conditions: Homo sapiens;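 note: confirmatory dose-response assay in RAS-dependent BJ fibroblasts engineered with TERT, LT and ST, with cytotoxicity read by fluorescence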
[22] = target: T4, Insulin-degrading enzyme; assay: cellular IDE activation of Abeta substrate cleavage – fluorescence polarization, HEK cells, dose response (AID 588439); assay type: functional, cell-based
[23] = test system: INS1; assay: INS-1E survival protection against cytokine death – cell-based, luminescence, retest, dose response (AID 449756); assay type: functional; conditions: Rattus norvegicus;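 note: cell death triggered by IL-1 beta plus TNF-alpha plus IFN-gamma mixture; protective hits raise ATP signal compared with cytokine alone wells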
[24] = test system: HEK293; assay: membrane integrity loss in HEK cells – cell-based, fluorescence, cytotoxicity control for IDE activator project, dose response (AID 588440); assay type: functional; conditions: Homo sapiens;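 note: cytotoxicity by LDH release measuring loss of membrane integrity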
[25] = test system: HEK293; assay: optical interference in Abeta FP readout, dose response, artefact control for IDE activator project, biochemical, fluorescence polarization (AID 588442); assay type: functional, cell-based; conditions: Homo sapiens
[26] = target: Paired box protein Pax-8 (Homo sapiens, UniProt Q06710); assay: PAX8 transcriptional activity inhibition in RMG-I – RMG-I cells, luciferase, cherry-pick, dose response (AID 687027); assay type: functional, cell-based;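 note: luciferase reporter driven by Pax8 target thyroperoxidase promoter measured by SteadyGlo luminescence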
[27] = reduced cellular PGC1a acetyl-lysine signal – cell-based, cherry-picked samples, dose response (AID 720514); assay type: functional;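 note: potency may reflect raised or lowered acetylation signal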
[28] = A549 cell cytotoxicity, dose response, cytotoxicity control, plate reader, cherry-pick, antagonist series (AID 743412); assay type: functional, cell-based
[29] = toxicity toward HepG2 liver cells – cell-based, plate reader, cherry-pick, antagonist series, cytotoxicity control, dose response (AID 743416); assay type: functional
[30] = blockers of bursicon-stimulated LGR2 cAMP reporter – cell-based, HEK293, CRE-luciferase reporter, cherry pick, set 2, dose response (AID 743343); assay type: functional;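 note: transfected cells were stimulated with diluted bursicon conditioned medium after compound addition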
[31] = blockade of melanocortin 4 receptor signaling – cell-based, plate reader, cherry pick, counter-screen for LGR2 antagonist project, dose response (AID 743444); assay type: functional;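 note: transfected HEK 293 cells stimulated with alpha-MSH peptide; potency of inhibitors of the alpha-MSH evoked signal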
[32] = viability loss in HEK293 cells – cell-based, plate reader, cherry-picked samples, cytotoxicity control, dose response (AID 743446); assay type: functional
[33] = target: T5, Calpain-2 catalytic subunit (Sus scrofa, UniProt P43367); assay: m-calpain protease blockers, concentration series – biochemical, fluorogenic peptide substrate, dose response (AID 1420); assay type: functional
T5 sequence (P43367 whole entry): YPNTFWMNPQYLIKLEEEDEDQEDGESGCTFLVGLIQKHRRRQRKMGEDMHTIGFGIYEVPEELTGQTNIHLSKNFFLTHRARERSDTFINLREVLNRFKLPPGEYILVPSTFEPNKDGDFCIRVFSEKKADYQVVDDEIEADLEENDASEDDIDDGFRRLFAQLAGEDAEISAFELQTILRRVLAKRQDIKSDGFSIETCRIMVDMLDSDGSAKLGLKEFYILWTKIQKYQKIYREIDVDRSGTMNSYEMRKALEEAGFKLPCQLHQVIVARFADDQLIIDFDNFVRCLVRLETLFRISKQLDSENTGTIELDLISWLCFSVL

Sequence of Paired box protein Pax-8 (Q06710 whole entry): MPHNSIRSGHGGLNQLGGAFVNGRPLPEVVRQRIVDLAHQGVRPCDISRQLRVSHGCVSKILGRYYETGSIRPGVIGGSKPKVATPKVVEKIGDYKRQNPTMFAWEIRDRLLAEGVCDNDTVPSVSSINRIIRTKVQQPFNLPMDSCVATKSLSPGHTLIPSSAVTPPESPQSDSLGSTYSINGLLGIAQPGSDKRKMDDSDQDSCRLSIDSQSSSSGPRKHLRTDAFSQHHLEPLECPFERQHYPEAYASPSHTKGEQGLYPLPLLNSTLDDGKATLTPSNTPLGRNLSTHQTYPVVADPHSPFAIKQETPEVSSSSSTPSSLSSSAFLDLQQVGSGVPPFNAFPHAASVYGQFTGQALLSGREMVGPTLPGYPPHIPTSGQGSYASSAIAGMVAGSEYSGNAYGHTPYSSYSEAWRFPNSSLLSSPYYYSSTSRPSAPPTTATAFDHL

SMILES: N#CC(=C1CCCC1)c1nc(-c2ccccc2O)cs1
- IC50 [1]: > 66.2 µM (inactive)
- IC50 [2]: > 49.7 µM (inactive)
- IC50 [3]: 6.33 µM (active)
- IC50 [4]: 6.43 µM (active)
- IC50 [5]: 31.6 µM (inactive)
- IC50 [6]: 19.8 µM (inactive)

SMILES: CNC[C@@H](CC1CCCCC1)NC[C@H](CC(C)C)NCCc1cccc(C(F)(F)F)c1
- EC50 [7]: 7.53 µM (inconclusive)
- EC50 [8]: > 120 µM (not active)
- EC50 [9]: 2.79 µM (active)
- EC50 [10]: 2.66 µM (inconclusive)
- EC50 [11]: 8.87 µM (active)
- EC50 [12]: 7.84 µM (active)
- EC50 [13]: 7.22 µM (inconclusive)
- EC50 [14]: > 38 µM (not active)
- EC50 [15]: 2.08 µM (active)
- EC50 [16]: 4.69 µM (active)
- EC50 [17]: 9.26 µM (active)
- IC50 [18]: > 20 µM (inactive)
- IC50 [19]: 29 µM (inactive)
- EC50 [20]: > 54.7 µM (inactive)
- EC50 [21]: 1.86 µM (inconclusive)
- EC50 [22]: 6.62 µM (active)
- AC50 [23]: 3.59 µM (active)
- IC50 [24]: 6.35 µM (active)
- EC50 [25]: > 54.7 µM (inactive)
- AC50 [26]: 9.93 µM (active)
- AC50 [27]: 3.24 µM (active)
- AC50 [28]: 4.66 µM (active)
- AC50 [29]: 3.86 µM (active)
- AC50 [30]: 14.6 µM (active)
- AC50 [31]: 22.5 µM (active)
- AC50 [32]: 7.81 µM (active)

SMILES: O=C(CSc1ccc(-c2ccccc2)nn1)c1cccs1
- IC50 [33]: > 50 µM (not active)
- IC50 [1]: > 66.2 µM (inactive)
- IC50 [2]: > 49.8 µM (inactive)
- IC50 [3]: 1.08 µM (active)
- IC50 [4]: 3.37 µM (active)
- IC50 [5]: > 88.8 µM (inactive)
- IC50 [6]: > 50 µM (inactive)
